Here are results for three molecules from patent US20100130604A1, “USE OF ROSMARINIC ACID IN MANUFACTURE OF MEDICAMENTS FOR TREATING OR PREVENTING HEPATIC AND RENAL DISEASES” (SHANGDONG LUYE NATURAL DRUG RESEARCH AND DEVELOPMENT CO., …, priority 2006, published 2010).

Holding throughout (format): in vivo, Sprague Dawley rats
The subject of assay [1] is renal interstitial fibrosis in rats. The assay is described as follows: Renal interstitial fibrosis in rats with unilateral urethral obstruction. The settings on record: day 10. How it is done:
130 rats were randomly divided into 13 groups, namely, a sham operation group, a model group, benazapril p.o. Group at 10 mg/kg, RA i.v. groups at 2.5 mg/kg, 5 mg/kg, 25 mg/kg, 75 mg/kg, and 150 mg/kg of RA, and RA p.o. groups at 2.5 mg/kg, 5 mg/kg, 25 mg/kg, 150 mg/kg, and 300 mg/kg of RA. The animals were acclimated for a week before they were all anaesthetised with an i.p. dose of 10% chloral hydrate at 3.0mL/kg and placed on the operating table in right lateral position. The rats were shaved and the operating area was disinfected using iodine tincture and 75% ethanol. The left urethra was exposed and isolated after a left lateral incision was made on the abdominal area and skin, muscles and all other layers of the abdominal wall were incised sequentially. In the sham group, the left urethra was only isolated without being ligated or cut off. In all other animals, the left urethra was ligated with No. 4 suture and obstructed followed by closure of the abdominal wall layer by layer. The animals were anaesthetised again with 10% chloral hydrate 10 days later, blood was collected and serum was separated to determine FN levels. The left kidney was removed after thorough rinsing and then fixed in 4% paraformaldehyde buffer. HYP level was determined according to instructions provided with the kit.

The subject of assay [2] is rats with diabetic nephropathy. The assay can be described thus: Diabetic nephropathy in rats (left nephrectomy + streptozocin). To be noted: p.o. 10 mg/kg; for creatinine: serum. On the procedure:
After 1 week-long acclimation period, animals were anaesthetised with 10% chloral hydrate (0.35 mL/100 g, i.p.) and nephrectomy was exercised to the left kidney. One week later, a single dose of 1% of streptozocin solution was i.v. injected to all animals at 60 mg/kg. After 72h, blood was collected from eyepit to test blood glucose level with the above-mentioned kit. The model was considered successful when blood glucose level >16.7 mmol/L. When the model is established, 130 rats were randomly divided into 13 groups, with 10 animals in each group, namely, a normal control group, a model group, benzanapril p.o. Group at 10 mg/kg, RA i.v. groups at 2.5 mg/kg, 5 mg/kg, 25 mg/kg, 75 mg/kg, and 150 mg/kg of RA, and RA p.o. groups at 5 mg/kg, 10 mg/kg, 50 mg/kg, 150 mg/kg, and 300 mg/kg of RA. The drugs were administered once every day. Blood was collected from eyepit at week 8 and week 16 to determine serum levels of creatinine and urea nitrogen. Urinary protein excretion within 24 hours was also studied. The animals were sacrificed 24 hours after the last dose and kidney removed for histopathological examination.

Assay [3] deals with CRF rats. The assay is described as follows: CRF induced by 5/6 nephrectomy in rats. The settings on record: 8 weeks; p.o. 12 mg/kg. How it is done:
130 rats were randomly divided into 13 groups, with 10 animals in each group, namely, a normal control group, a model group, methylprednisolone p.o. Group at 12 mg/kg, RA i.v. groups at 2.5 mg/kg, 5 mg/kg, 25 mg/kg, 75 mg/kg, and 150 mg/kg of RA, and RA p.o. groups at 5 mg/kg, 10 mg/kg, 50 mg/kg, 150 mg/kg, and 300 mg/kg of RA. Apart from the normal control group, all other rats were induced to CRF by cutting off 5/6 of the kidneys. 2/3 of the left kidney was removed in the first operation, and one week later the right kidney in the second operation. Dosing started one week after the second operation via p.o. or i.p. routes. Blood was collected from eyepit at week 4 and week 8 to determine creatinine and urea nitrogen levels in sera. 5 animals in each group were sacrificed at week 4 and […] were sacrificed at the end of the study. Pathological changes in renal function were observed through HE and PAS staining of histopathological sections.

The test system of assay [4] is CRF rats. The assay can be described thus: CRF induced by 5/6 nephrectomy in rats. The settings on record: p.o. 12 mg/kg.
The next assay has as its system hepatofibrosis in rats. The assay is described as follows: CCl4-induced hepatofibrosis in chronic hepatitis in rats. The settings on record: hepatic; 8 mg/kg, 6 weeks. On the procedure:
120 rats were randomly divided into 12 groups, with 10 in each group, namely, a normal control group, a model group, […] Apart from the normal control group, all rats were s.c. injected 0.3 ml of 40% solution of CC14 in oil per 100 g of body weight once every 3 days for 6 weeks. Animals in the normal control group were s.c. injected 0.3 ml/100 g body weight of oil vehicle following the same schedule as the experimental groups. First dose was doubled for all animals. Six weeks later, drugs were continuously administered to animals in each group for 6 weeks. After the administration was completed, all animals were anaesthetised with i.p. injection of 20% ethyl carbamate solution (Beijing Tongxian District Yucai Fine Chemicals). Blood was collected from abdominal aorta. Hepatic lobule tissue was removed, part of which was fixed with 10% neutral foinialin solution and made into wax blocks within 24-48 hours. […] Serum HA, LN, Pc III levels and hepatic HYP level were determined according to the respective kit instructions.

SMILES strings stand for the structures.

Turning to `CCOC(=O)[C@H](CCc1ccccc1)N[C@H]1CCc2ccccc2N(CC(=O)O)C1=O` [Benazapril, reference compound], in assay [1] (left kidney, benazapril p.o. 10 mg/kg), the HYP stood at 500 ± 132 µg/g. The molecule further showed an FN in assay [1] (serum, p.o. 10 mg/kg) of 17.0 ± 3.6 mg/L. Further, in assay [2] (8 weeks), the “24 h urinary protein excretion” value came out at 19.29 ± 2.11 mg/24 h, the Blood glucose came to 21.11 ± 4.55 mmol/L, the Serum urea nitrogen is recorded as 9.21 ± 1.62 mg/dL and the creatinine is on record as 0.57 ± 0.07 mg/dL. For the same molecule, in assay [2] (16 weeks), the “24 h urinary protein excretion” value came to 61.76 ± 6.75 mg/24 h, the Blood glucose was 22.11 ± 4.55 mmol/L, the Serum urea nitrogen is 18.21 ± 3.25 mg/dL and the creatinine worked out at 1.15 ± 0.13 mg/dL.
For `C[C@H]1C[C@@H]2[C@H]([C@@H](O)C[C@@]3(C)[C@H]2CC[C@]3(O)C(=O)CO)[C@@]2(C)C=CC(=O)C=C12` [Methylprednisolone, reference compound], the values for the Serum urea nitrogen in the assay with CRF rats [3] and with CRF rats [4] (4 weeks) were 18.21 ± 4.25 mg/dL and 15.21 ± 3.25 mg/dL, respectively. Besides, the Serum creatinine in the assay on CRF rats [4] (4 weeks) is listed as 1.33 ± 0.13 mg/dL; in the assay on CRF rats [4] (8 weeks), 1.25 ± 0.17 mg/dL.
`CN(CCOc1ccc(CC2SC(=O)NC2=O)cc1)c1ccccn1` (stereo not drawn) [Rosiglitazone, reference compound] had an HYP with hepatofibrosis in rats of 1259 ± 153 µg/L.
